Results on 1 compound are retold here after PMC8195987, “Structural basis for plazomicin antibiotic action and resistance” (Communications Biology, 2021).

In this assay the target is T1, AAC(2′)-Ia (Providencia stuartii, UniProt Q52424).
T1 construct: synthetic gene in pET-15b, E. coli BL21(DE3); N-terminal His-tag removed with thrombin; homodimer
Description: X-ray crystal structure. In kind it is binding. The conditions noted are these: product complex with acetylated plazomicin, 1.95 Å; formed from acetyl-CoA during crystallization; active site.

T1 sequence (Q52424 whole entry): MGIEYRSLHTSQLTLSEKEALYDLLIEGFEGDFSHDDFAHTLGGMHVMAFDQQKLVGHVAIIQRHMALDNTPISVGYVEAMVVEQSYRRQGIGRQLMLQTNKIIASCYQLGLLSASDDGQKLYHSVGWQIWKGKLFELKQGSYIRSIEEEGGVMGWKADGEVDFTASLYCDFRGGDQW

Take `CC(C)(COP(=O)(O)OP(=O)(O)OC[C@H]1O[C@@H](n2cnc3c(N)ncnc32)[C@H](O)[C@@H]1OP(=O)(O)O)[C@@H](O)C(=O)NCCC(=O)NCCS` [CoA]: the X-ray crystal structure result is “identified the enzymatically modified plazomicin and CoA in the active site”.
